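Compound exposure: 48 hours, 5 concentrations, 96-well plates. Here, GI50 denotes the concentration required for 50% inhibition of growth. TGI: total growth inhibition.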
What was measured:
Test in all cases: NCI anticancer screen, dose series, 48 h
[1] = tested on: BT-549 breast
[2] = tested on: A549 NSCLC
[3] = tested on: RPMI-8226 leukemia
[4] = tested on: UO-31 renal
[5] = tested on: DU-145 prostate
[6] = tested on: OVCAR-8 ovarian
[7] = tested on: SK-MEL-2 melanoma
[8] = tested on: CCRF-CEM leukemia
[9] = tested on: HT29 colon
[10] = tested on: NCI-H226 lung

| SMILES | TGI [1] | TGI [2] | TGI [3] | TGI [4] | TGI [5] | TGI [6] | TGI [7] | TGI [8] | TGI [9] | TGI [10] | GI50 [1] | GI50 [2] | GI50 [3] | GI50 [4] | GI50 [5] | GI50 [6] | GI50 [7] | GI50 [8] | GI50 [9] | GI50 [10] |
| --- | --- | --- | --- | --- | --- | --- | --- | --- | --- | --- | --- | --- | --- | --- | --- | --- | --- | --- | --- | --- |
| COC(=O)C=Cc1ccc2nncnc2c1 (mixture of isomers) | > 100 µM | 56.4 µM | > 100 µM | > 100 µM | > 100 µM | > 100 µM | > 100 µM | > 100 µM | > 100 µM | > 100 µM | – | – | – | – | – | – | – | – | – | – |
| CN1CSC(=S)N(Cc2ccccc2)C1 | 70.1 µM | > 100 µM | 79.7 µM | 21.5 µM | 6.21 µM | > 100 µM | 18.2 µM | > 100 µM | 11.6 µM | > 100 µM | 17.1 µM | 30.2 µM | 5.54 µM | 7.93 µM | 2.05 µM | 25.2 µM | 4.64 µM | 18 µM | 3.36 µM | 70.5 µM |
| O=[N+]([O-])c1cccc(C2CC(c3ccccc3)=Nc3ccccc3S2)c1 (stereo not given) | 26.7 µM | > 100 µM | 17.3 µM | 21.9 µM | 34.3 µM | 39.6 µM | 43.6 µM | > 100 µM | 24.3 µM | > 100 µM | 13.2 µM | 30.6 µM | 3.41 µM | 9.61 µM | 16.8 µM | 15.5 µM | 21 µM | 5.91 µM | 8.25 µM | 72.4 µM |
| O=C1Cc2cc(C(=O)NC3C[C@H]4CC[C@@H](C3)N4S(=O)(=O)CC3CCN(CCCC(F)(F)F)CC3)c(Cl)cc2N1 (stereo not given in full) | > 100 µM | > 100 µM | > 100 µM | > 100 µM | > 100 µM | > 100 µM | > 100 µM | > 100 µM | > 100 µM | > 100 µM | > 100 µM | > 100 µM | > 100 µM | > 100 µM | > 100 µM | > 100 µM | > 100 µM | > 100 µM | > 100 µM | > 100 µM |
| C#CCOc1ccc2ncnc(Nc3ccc(NC(=O)C=C)cc3)c2c1 | > 100 µM | > 100 µM | 7.44 µM | 44.4 µM | > 100 µM | > 100 µM | > 100 µM | 40.8 µM | > 100 µM | > 100 µM | 39.3 µM | > 100 µM | 2.63 µM | 11.6 µM | 25.4 µM | 45.8 µM | > 100 µM | 4.26 µM | 30.6 µM | > 100 µM |
| Cc1ccc(NC(=O)C(=O)CC(=O)c2sc(Nc3c(C)cccc3C)nc2C)cc1C | > 100 µM | > 100 µM | > 100 µM | > 100 µM | > 100 µM | > 100 µM | > 100 µM | > 100 µM | > 100 µM | > 100 µM | – | – | – | – | – | – | – | – | – | – |
| COc1cc2cc(Oc3ccc(NC(=O)Nc4ccc(Cl)c(Cl)c4)cc3)c(C)nc2cc1OC | 11.7 µM | 7.61 µM | 5.73 µM | 12.6 µM | 17.1 µM | 12.9 µM | 6.54 µM | 14 µM | 4.89 µM | 8.68 µM | 2.4 µM | 1.64 µM | 1.62 µM | 3.44 µM | 4.27 µM | 3.54 µM | 3 µM | 2.38 µM | 2.34 µM | 3.12 µM |

Source: PubChem BioAssay (NCI)
